Results reported in ChEMBL document CHEMBL4813981, “Synthesis and in vitro antibacterial activity of new aminothiazole-oximepiperidone cephalosporins” (2021).
In brackets after ≈: the same amount, converted by molar mass.

Experiments:
[1] = test system: Klebsiella pneumoniae; experiment: Antibacterial activity against Multidrug resistant Klebsiella pneumoniae KR 15-2 assessed as reduction in bacterial growth; assay type: functional
[2] = test system: Acinetobacter baumannii; experiment: Antibacterial activity against Multidrug resistant Acinetobacter baumannii AR 15-3 assessed as reduction in bacterial growth; assay type: functional
[3] = test system: Escherichia coli; experiment: Antibacterial activity against ESBLs negative Carbapenem-sensitive Escherichia coli 17-20 assessed as reduction in bacterial growth; assay type: functional
[4] = test system: Pseudomonas aeruginosa; experiment: Antibacterial activity against Carbapenem- sensitive Pseudomonas aeruginosa 17-11 assessed as reduction in bacterial growth; assay type: functional
[5] = test system: Acinetobacter baumannii; experiment: Antibacterial activity against Carbapenem- resistant Acinetobacter baumannii 17-3 assessed as reduction in bacterial growth in the presence of Avibactam; assay type: functional
[6] = test system: Acinetobacter baumannii; experiment: Antibacterial activity against Carbapenem- resistant Acinetobacter baumannii 17-5 assessed as reduction in bacterial growth in the presence of Avibactam; assay type: functional
[7] = test system: Klebsiella pneumoniae; experiment: Antibacterial activity against Carbapenem- resistant Klebsiella pneumoniae KR 15-4 assessed as reduction in bacterial growth in the presence of Avibactam; assay type: functional
[8] = test system: Klebsiella pneumoniae; experiment: Antibacterial activity against Carbapenem- resistant Klebsiella pneumoniae KR 15-6 assessed as reduction in bacterial growth in the presence of Avibactam; assay type: functional
[9] = test system: Klebsiella pneumoniae; experiment: Antibacterial activity against Carbapenem- resistant Klebsiella pneumoniae KR 15-11 assessed as reduction in bacterial growth in the presence of Avibactam; assay type: functional
[10] = test system: Klebsiella pneumoniae; experiment: Antibacterial activity against Carbapenem- resistant Klebsiella pneumoniae KR 15-13 assessed as reduction in bacterial growth in the presence of Avibactam; assay type: functional
[11] = test system: Klebsiella pneumoniae; experiment: Antibacterial activity against ESBLs positive Carbapenem-sensitive Klebsiella pneumoniae 17-6 assessed as reduction in bacterial growth in the presence of Avibactam; assay type: functional
[12] = test system: Klebsiella pneumoniae; experiment: Antibacterial activity against ESBLs positive Carbapenem-sensitive Klebsiella pneumoniae 17-9 assessed as reduction in bacterial growth in the presence of Avibactam; assay type: functional
[13] = test system: Klebsiella pneumoniae; experiment: Antibacterial activity against ESBLs negative Carbapenem-sensitive Klebsiella pneumoniae 17-18 assessed as reduction in bacterial growth in the presence of Avibactam; assay type: functional
[14] = test system: Klebsiella pneumoniae; experiment: Antibacterial activity against ESBLs negative Carbapenem-sensitive Klebsiella pneumoniae 17-20 assessed as reduction in bacterial growth in the presence of Avibactam; assay type: functional
[15] = test system: Escherichia coli; experiment: Antibacterial activity against ESBLs positive Carbapenem-sensitive Escherichia coli 17-11 assessed as reduction in bacterial growth in the presence of Avibactam; assay type: functional
[16] = test system: Escherichia coli; experiment: Antibacterial activity against ESBLs positive Carbapenem-sensitive Escherichia coli 17-15 assessed as reduction in bacterial growth in the presence of Avibactam; assay type: functional
[17] = test system: Escherichia coli; experiment: Antibacterial activity against ESBLs positive Carbapenem- sensitive Escherichia coli 17-17 assessed as reduction in bacterial growth in the presence of Avibactam; assay type: functional
[18] = test system: Enterobacter cloacae; experiment: Antibacterial activity against Enterobacter cloacae 17-5 assessed as reduction in bacterial growth in the presence of Avibactam; assay type: functional
[19] = test system: Klebsiella aerogenes; experiment: Antibacterial activity against Enterobacter aerogenes 15-7 assessed as reduction in bacterial growth in the presence of Avibactam; assay type: functional
[20] = test system: Pseudomonas aeruginosa; experiment: Antibacterial activity against Carbapenem- sensitive Pseudomonas aeruginosa 17-9 assessed as reduction in bacterial growth in the presence of Avibactam; assay type: functional
[21] = test system: Pseudomonas aeruginosa; experiment: Antibacterial activity against Carbapenem- sensitive Pseudomonas aeruginosa 17-21 assessed as reduction in bacterial growth in the presence of Avibactam; assay type: functional
[22] = test system: Pseudomonas aeruginosa; experiment: Antibacterial activity against Carbapenem- sensitive Pseudomonas aeruginosa 17-22 assessed as reduction in bacterial growth in the presence of Avibactam; assay type: functional
[23] = test system: Pseudomonas aeruginosa; experiment: Antibacterial activity against Carbapenem- sensitive Pseudomonas aeruginosa 17-26 assessed as reduction in bacterial growth in the presence of Avibactam; assay type: functional
[24] = test system: Klebsiella pneumoniae; experiment: Bactericidal activity against Carbapenem- resistant Klebsiella pneumoniae KR 15-6 assessed as reduction in bacterial growth; assay type: functional
[25] = test system: Escherichia coli; experiment: Bactericidal activity against ESBLs negative Carbapenem--sensitive Escherichia coli 17-7 assessed as reduction in bacterial growth; assay type: functional
[26] = test system: Escherichia coli; experiment: Bactericidal activity against ESBLs positive Carbapenem-sensitive Escherichia coli 17-18 assessed as reduction in bacterial growth; assay type: functional
[27] = test system: Klebsiella aerogenes; experiment: Bactericidal activity against Enterobacter aerogenes 17-1 assessed as reduction in bacterial growth; assay type: functional
[28] = test system: Pseudomonas aeruginosa; experiment: Bactericidal activity against carbapenem-sensitive Pseudomonas aeruginosa 17-9 assessed as reduction in bacterial growth; assay type: functional
[29] = test system: Pseudomonas aeruginosa; experiment: Bactericidal activity against carbapenem-sensitive Pseudomonas aeruginosa 17-10 assessed as reduction in bacterial growth; assay type: functional
[30] = test system: Escherichia coli; experiment: Bactericidal activity against Escherichia coli NCTC 13353 assessed as reduction in bacterial growth; assay type: functional
[31] = test system: Acinetobacter baumannii; experiment: Bactericidal activity against Acinetobacter baumannii NCTC 13304 assessed as reduction in bacterial growth; assay type: functional
[32] = test system: Klebsiella pneumoniae; experiment: Bactericidal activity against Klebsiella pneumoniae ATCC BAA-1705 assessed as reduction in bacterial growth; assay type: functional
[33] = test system: Acinetobacter baumannii; experiment: Bactericidal activity against Carbapenem- resistant Acinetobacter baumannii 17-2 assessed as reduction in bacterial growth in the presence of avibactam; assay type: functional
[34] = test system: Acinetobacter baumannii; experiment: Bactericidal activity against Carbapenem- resistant Acinetobacter baumannii 17-3 assessed as reduction in bacterial growth in the presence of avibactam; assay type: functional
[35] = test system: Acinetobacter baumannii; experiment: Bactericidal activity against Carbapenem- resistant Acinetobacter baumannii 17-6 assessed as reduction in bacterial growth in the presence of avibactam; assay type: functional
[36] = test system: Klebsiella pneumoniae; experiment: Bactericidal activity against Carbapenem- resistant Klebsiella pneumoniae KR 15-6 assessed as reduction in bacterial growth in the presence of avibactam; assay type: functional
[37] = test system: Pseudomonas aeruginosa; experiment: Bactericidal activity against Carbapenem- resistant Pseudomonas aeruginosa 17-1 assessed as reduction in bacterial growth in the presence of avibactam; assay type: functional
[38] = test system: Klebsiella pneumoniae; experiment: Bactericidal activity against ESBLs negative Carbapenem-sensitive Klebsiella pneumoniae 17-17 assessed as reduction in bacterial growth in the presence of avibactam; assay type: functional
[39] = test system: Escherichia coli; experiment: Bactericidal activity against ESBLs negative carbapenem-sensitive Escherichia coli 17-20 assessed as reduction in bacterial growth in the presence of avibactam; assay type: functional
[40] = test system: Enterobacter cloacae; experiment: Bactericidal activity against Enterobacter cloacae 17-10 assessed as reduction in bacterial growth in the presence of avibactam; assay type: functional
[41] = test system: Klebsiella aerogenes; experiment: Bactericidal activity against Enterobacter aerogenes 17-1 assessed as reduction in bacterial growth in the presence of avibactam; assay type: functional
[42] = test system: Klebsiella aerogenes; experiment: Bactericidal activity against Enterobacter aerogenes 15-3 assessed as reduction in bacterial growth in the presence of avibactam; assay type: functional
[43] = test system: Pseudomonas aeruginosa; experiment: Bactericidal activity against carbapenem-sensitive Pseudomonas aeruginosa 17-9 assessed as reduction in bacterial growth in the presence of avibactam; assay type: functional
[44] = test system: Acinetobacter baumannii; experiment: Bactericidal activity against Acinetobacter baumannii NCTC 13304 assessed as reduction in bacterial growth in the presence of avibactam; assay type: functional
[45] = test system: Enterobacter cloacae; experiment: Antibacterial activity against Enterobacter cloacae 17-2 assessed as reduction in bacterial growth
[46] = test system: Acinetobacter baumannii; experiment: Antibacterial activity against Carbapenem- resistant Acinetobacter baumannii 17-2 assessed as reduction in bacterial growth
[47] = test system: Klebsiella pneumoniae; experiment: Antibacterial activity against Carbapenem- resistant Klebsiella pneumoniae KR 15-8 assessed as reduction in bacterial growth

Nc1nc(/C(=N/OCc2cc(=O)c(O)cn2O)C(=O)N[C@@H]2C(=O)N3C(C(=O)O)=CCS[C@H]23)cs1
MIC [1]: > 64 µg/mL
MIC [2]: > 64 µg/mL
MIC [3]: 0.25 µg/mL (≈ 0.492 µM)
MIC [4]: 8 µg/mL (≈ 15.7 µM)
MIC [5]: 16 µg/mL
MIC [6]: 16 µg/mL
MIC [7]: 4 µg/mL
MIC [8]: 0.5 µg/mL
MIC [9]: 1 µg/mL
MIC [10]: 2 µg/mL
MIC [11]: 0.25 µg/mL
MIC [12]: 0.5 µg/mL
MIC [13]: 0.06 µg/mL
MIC [14]: 0.06 µg/mL
MIC [15]: 4 µg/mL
MIC [16]: 0.25 µg/mL
MIC [17]: 0.5 µg/mL
MIC [18]: 4 µg/mL
MIC [19]: 2 µg/mL
MIC [20]: 2 µg/mL
MIC [21]: 2 µg/mL
MIC [22]: 1 µg/mL
MIC [23]: 1 µg/mL
MBC [24]: 64 µg/mL (≈ 126 µM)
MBC [25]: 4 µg/mL (≈ 7.87 µM)
MBC [26]: 32 µg/mL (≈ 62.9 µM)
MBC [27]: 64 µg/mL (≈ 126 µM)
MBC [28]: 16 µg/mL (≈ 31.5 µM)
MBC [29]: 8 µg/mL (≈ 15.7 µM)
MBC [30]: > 64 µg/mL
MBC [31]: > 64 µg/mL
MBC [32]: > 64 µg/mL
MBC [33]: 16 µg/mL
MBC [34]: 16 µg/mL
MBC [35]: 16 µg/mL
MBC [36]: 0.5 µg/mL
MBC [37]: 64 µg/mL
MBC [38]: 1 µg/mL
MBC [39]: > 0.5 µg/mL
MBC [40]: 1 µg/mL
MBC [41]: 4 µg/mL
MBC [42]: 16 µg/mL
MBC [43]: 4 µg/mL
MBC [44]: 16 µg/mL
MIC [45]: > 64 µg/mL
MIC [46]: > 64 µg/mL
MIC [47]: > 64 µg/mL

CC(C)(O/N=C(\C(=O)N[C@@H]1C(=O)N2C(C(=O)[O-])=C(C[n+]3ccccc3)CS[C@H]12)c1csc(N)n1)C(=O)O [CEFTAZIDIME]
MIC [1]: > 64 µg/mL
MIC [2]: > 64 µg/mL
MIC [5]: 8 µg/mL
MIC [6]: 8 µg/mL
MIC [7]: 2 µg/mL
MIC [8]: 1 µg/mL
MIC [9]: 2 µg/mL
MIC [10]: 1 µg/mL
MIC [11]: 0.5 µg/mL
MIC [12]: 0.5 µg/mL
MIC [13]: 0.125 µg/mL
MIC [14]: 0.125 µg/mL
MIC [15]: 0.5 µg/mL
MIC [16]: 0.5 µg/mL
MIC [17]: 0.5 µg/mL
MIC [18]: 1 µg/mL
MIC [19]: 1 µg/mL
MIC [20]: 0.125 µg/mL
MIC [21]: 1 µg/mL
MIC [22]: 0.5 µg/mL
MIC [23]: 1 µg/mL
MBC [24]: 64 µg/mL (≈ 117 µM)
MBC [25]: 0.25 µg/mL (≈ 0.457 µM)
MBC [26]: 2 µg/mL (≈ 3.66 µM)
MBC [27]: 16 µg/mL (≈ 29.3 µM)
MBC [28]: 0.5 µg/mL (≈ 0.915 µM)
MBC [29]: 8 µg/mL (≈ 14.6 µM)
MBC [30]: > 64 µg/mL
MBC [31]: > 64 µg/mL
MBC [32]: > 64 µg/mL
MBC [33]: 8 µg/mL
MBC [34]: 8 µg/mL
MBC [35]: 16 µg/mL
MBC [36]: 2 µg/mL
MBC [37]: 16 µg/mL
MBC [38]: 0.25 µg/mL
MBC [39]: > 2 µg/mL
MBC [40]: 1 µg/mL
MBC [41]: 1 µg/mL
MBC [42]: 4 µg/mL
MBC [43]: 0.25 µg/mL
MBC [44]: 8 µg/mL
MIC [45]: 64 µg/mL (≈ 117 µM)
MIC [46]: > 64 µg/mL
MIC [47]: > 64 µg/mL

C[C@@H](O)[C@H]1C(=O)N2C(C(=O)O)=C(S[C@@H]3CN[C@H](C(=O)N(C)C)C3)[C@H](C)[C@H]12 [MEROPENEM]
MIC [3]: < 0.03 µg/mL
MIC [4]: 2 µg/mL (≈ 5.22 µM)
